# Measured values published in patent publication US11198713B2, “Agents modulating beta-catenin functions and methods thereof” (FOG PHARMACEUTICALS, INC., priority 2017, dated 2021).
# Numbered stars: 1 amine (or outer) side, 2 acyl side, 3 side chain; on linkers, the order of the positions; unused ones are H or OH. Bridge positions count the residues as written; N and C are the ends. Square brackets hold non-standard residues; d marks the D form. Peptide text beside a SMILES is read from it. dαMeDap(Me) = CN(C[C@@](C)(N[*:1])C(=O)[*:2])[*:3]; X3 = O=C([C@@]1(N[*:1])CCN([*:3])C1)[*:2]; X1 = O=C([C@]1(N[*:1])CCN([*:3])C1)[*:2]; X2 = O=C(OCC=CCOC(=O)[*:2])[*:1]
# Biological target: T1, full-length beta-catenin (Axin site) (Homo sapiens, UniProt P35222)
# T1 construct: 15 nM full-length beta-catenin, 20 nM FITC labeled peptide in buffer
# T1 sequence (P35222 1-781): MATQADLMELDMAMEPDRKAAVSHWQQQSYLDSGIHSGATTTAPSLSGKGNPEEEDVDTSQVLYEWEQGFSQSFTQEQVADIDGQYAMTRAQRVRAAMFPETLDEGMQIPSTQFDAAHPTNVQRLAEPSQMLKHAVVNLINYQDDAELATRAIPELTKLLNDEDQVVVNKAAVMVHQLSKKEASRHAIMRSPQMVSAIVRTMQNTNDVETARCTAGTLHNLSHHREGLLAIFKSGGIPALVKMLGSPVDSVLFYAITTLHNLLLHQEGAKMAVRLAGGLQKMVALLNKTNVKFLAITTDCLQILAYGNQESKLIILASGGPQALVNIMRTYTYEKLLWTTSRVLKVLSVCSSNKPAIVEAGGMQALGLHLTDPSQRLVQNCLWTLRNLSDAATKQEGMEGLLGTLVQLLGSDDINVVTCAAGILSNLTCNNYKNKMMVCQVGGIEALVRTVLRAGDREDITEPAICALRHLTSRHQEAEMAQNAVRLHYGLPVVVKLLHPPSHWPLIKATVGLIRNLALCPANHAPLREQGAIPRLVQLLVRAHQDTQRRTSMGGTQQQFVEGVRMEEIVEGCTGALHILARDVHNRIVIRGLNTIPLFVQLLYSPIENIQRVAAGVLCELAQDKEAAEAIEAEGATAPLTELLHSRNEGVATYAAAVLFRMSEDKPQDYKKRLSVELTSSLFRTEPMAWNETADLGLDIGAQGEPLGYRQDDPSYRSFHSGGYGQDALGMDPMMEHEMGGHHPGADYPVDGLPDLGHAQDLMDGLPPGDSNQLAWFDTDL
# Experiment: Competition fluorescence polarization assay (Axin site probe)
# Type: binding
# Details: competition fluorescence polarization, Table 2; read-out: in vitro FP EC50
# Summary of the method: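 Competition FP: 15 nM full-length β-catenin pre-incubated 5 min with 20 nM FITC-labelled stapled Axin-site peptide, then titrated peptide added (3-fold series from 5 μM) for 15 min in the dark. Buffer 50 mM Tris pH 8.0, 250 mM NaCl, 2% glycerol, 0.5 mM EDTA; duplicate reads.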
row,SMILES,EC50 [nM]
1,"CC[C@H](C)[C@@H]1NC(=O)[C@H](Cc2c[nH]cn2)NC(=O)[C@H](C)NC(=O)[C@H](CC(=O)O)NC(=O)[C@H](CC(C)C)NC(=O)[C@H]([C@@H](C)CC)NC(=O)[C@](C)(NC(=O)[C@H](C)NC(C)=O)CCCN(C)C(=O)OCC=CCCC[C@@](C)(C(=O)N[C@@H](CCCNC(=N)N)C(=O)N[C@H](C(=O)N[C@@H](Cc2c[nH]c3ccccc23)C(N)=O)C(C)C)NC1=O (single isomer, unassigned) [FP0506c Isomer 2, Ac-A-MI-I-L-D-A-H-I-S5-R-V-W-NH2]",< 100
2,"CC[C@H](C)[C@@H]1NC(=O)[C@H](Cc2ccncc2)NC(=O)[C@H](C)NC(=O)[C@H](CC(=O)O)NC(=O)[C@H](CC(C)C)NC(=O)[C@H]([C@@H](C)CC)NC(=O)[C@](C)(NC(=O)[C@H](C)NC(C)=O)CCCCCCC=CCOC(=O)N2CC[C@@](C(=O)N[C@@H](CCCNC(=N)N)C(=O)N[C@H](C(=O)N[C@@H](Cc3c[nH]c4ccccc34)C(N)=O)C(C)C)(C2)NC1=O [FP0538c, Ac-A-R8-I-L-D-A-4pyr-I-MB-R-V-W-NH2]",500 to 5000
3,"CC[C@H](C)[C@@H]1NC(=O)[C@H](Cc2c[nH]cn2)NC(=O)[C@H](C)NC(=O)[C@H](CC(=O)O)NC(=O)[C@H](CC(C)C)NC(=O)[C@H]([C@@H](C)CC)NC(=O)[C@](C)(NC(=O)[C@H](C)NC(C)=O)CCCN(C)C(=O)OCC=CCCC[C@@](C)(C(=O)N[C@@H](CCCNC(=N)N)C(=O)N[C@H](C(=O)N[C@@H](Cc2c[nH]c3ccccc23)C(N)=O)C(C)C)NC1=O (single isomer, unassigned) [FP0506c Isomer 1, Ac-A-MI-I-L-D-A-H-I-S5-R-V-W-NH2]",100 to 500
4,"CC[C@H](C)[C@@H]1NC(=O)[C@H](Cc2ccccn2)NC(=O)[C@H](C)NC(=O)[C@H](CC(=O)O)NC(=O)[C@H](CC(C)C)NC(=O)[C@H]([C@@H](C)CC)NC(=O)[C@](C)(NC(=O)[C@H](C)NC(C)=O)CCCCCCC=CCOC(=O)N2CC[C@@](C(=O)N[C@@H](CC3CC3)C(=O)N[C@H](C(=O)N[C@@H](Cc3c[nH]c4ccccc34)C(N)=O)C(C)C)(C2)NC1=O (single isomer, unassigned) [FP0574c Isomer 1, Ac-A-R8-I-L-D-A-2pyr-I-MB-cpa-V-W-NH2]",> 5000
5,"CC[C@H](C)[C@@H]1NC(=O)[C@H](Cc2ccccc2)NC(=O)[C@H](C)NC(=O)[C@H](CC(=O)O)NC(=O)[C@H](CC(C)C)NC(=O)[C@H]([C@@H](C)CC)NC(=O)[C@](C)(NC(=O)[C@H](C)NC(C)=O)CCCCCCC=CCOC(=O)N2CC[C@@](C(=O)N[C@@H](CCCNC(=N)N)C(=O)N[C@H](C(=O)N[C@@H](Cc3c[nH]c4ccccc34)C(N)=O)C(C)C)(C2)NC1=O [FP0540c, Ac-A-R8-I-L-D-A-F-I-MB-R-V-W-NH2]",> 5000
6,"CC[C@H](C)[C@@H]1NC(=O)[C@H](Cc2c[nH]cn2)NC(=O)[C@H](C)NC(=O)[C@H](CC(N)=O)NC(=O)[C@H](CC(C)C)NC(=O)[C@H]([C@@H](C)CC)NC(=O)[C@](C)(NC(=O)[C@H](C)NC(C)=O)CCCCCCC=CCOC(=O)N2CC[C@@](C(=O)N[C@@H](CCCNC(=N)N)C(=O)N[C@H](C(=O)N[C@@H](Cc3c[nH]c4ccccc34)C(N)=O)C(C)C)(C2)NC1=O [FP0218c, Ac-A-R8-I-L-N-A-H-I-MB-R-V-W-NH2]",100 to 500
7,"CC[C@H](C)[C@@H]1NC(=O)[C@H](Cc2c[nH]cn2)NC(=O)[C@H](C)NC(=O)[C@H](CC(=O)O)NC(=O)[C@H](CC(C)C)NC(=O)[C@H]([C@@H](C)CC)NC(=O)[C@](C)(NC(=O)[C@H](C)NC(C)=O)CN(C)C(=O)OCC=CCOC(=O)N2CC[C@@](C(=O)N[C@@H](CCCNC(=N)N)C(=O)N[C@H](C(=O)N[C@@H](Cc3c[nH]c4ccccc34)C(N)=O)C(C)C)(C2)NC1=O [FP0604c, Ac-A-ME-I-L-D-A-H-I-MB-R-V-W-NH2] (Ac-A[dαMeDap(Me)]ILDAHI[X1]RVW-NH2; linker 2-9 via X2)",< 100
8,"CC[C@H](C)[C@@H]1NC(=O)[C@H](Cc2c[nH]cn2)NC(=O)[C@H](C)NC(=O)[C@H](CC(=O)O)NC(=O)[C@H](CC(C)C)NC(=O)[C@H]([C@@H](C)CC)NC(=O)[C@](C)(NC(=O)[C@H](C)NC(C)=O)CCCC=CCOC(=O)N(C)CC[C@@](C)(C(=O)N[C@@H](CCCNC(=N)N)C(=O)N[C@H](C(=O)N[C@@H](Cc2c[nH]c3ccccc23)C(N)=O)C(C)C)NC1=O [FP0501c, Ac-A-R5-I-L-D-A-H-I-MF-R-V-W-NH2]",100 to 500
9,"CC[C@H](C)[C@@H]1NC(=O)[C@H](Cc2ccccn2)NC(=O)[C@H](C)NC(=O)[C@H](CC(=O)O)NC(=O)[C@H](CC(C)C)NC(=O)[C@H]([C@@H](C)CC)NC(=O)[C@](C)(NC(=O)[C@H](C)NC(C)=O)CCCCCCC=CCOC(=O)N2CC[C@@](C(=O)N[C@@H](CC3CC3)C(=O)N[C@H](C(=O)N[C@@H](Cc3c[nH]c4ccccc34)C(N)=O)C(C)C)(C2)NC1=O (single isomer, unassigned) [FP0574c Isomer 2, Ac-A-R8-I-L-D-A-2pyr-I-MB-cpa-V-W-NH2]",> 5000
10,"CC[C@H](C)[C@@H]1NC(=O)[C@H](Cc2c[nH]cn2)NC(=O)[C@H](C)NC(=O)[C@H]([C@@H](C)O)NC(=O)[C@H](CC(C)C)NC(=O)[C@H]([C@@H](C)CC)NC(=O)[C@](C)(NC(=O)[C@H](C)NC(C)=O)CCCCCCC=CCOC(=O)N2CC[C@@](C(=O)N[C@@H](CCCNC(=N)N)C(=O)N[C@H](C(=O)N[C@@H](Cc3c[nH]c4ccccc34)C(N)=O)C(C)C)(C2)NC1=O [FP0219c, Ac-A-R8-I-L-T-A-H-I-MB-R-V-W-NH2]",100 to 500

# Other lines, results leading:
row,EC50 [nM],SMILES
1,500 to 5000,"CC[C@H](C)[C@@H]1NC(=O)[C@](C)(NC(=O)[C@H](CCC(N)=O)NC(=O)[C@@H]2CCCN2C(C)=O)CCCCC=CCN2CC[C@](C(=O)N[C@@H](Cc3c[nH]cn3)C(=O)N[C@H](C(=O)N[C@@H](CCCNC(=N)N)C(=O)N[C@@H](CCCNC(=N)N)C(=O)N[C@H](C(=O)N[C@@H](Cc3c[nH]c4ccccc34)C(=O)N[C@@H](CCCNC(=N)N)C(N)=O)C(C)C)C(C)C)(C2)NC(=O)[C@H](CC(=O)O)NC(=O)[C@H](CC(C)C)NC1=O (single isomer, unassigned) [FP0767a, Ac-P-Q-R6-I-L-D-MC-H-V-R-R-V-W-R-NH2]"
2,< 100,"CC[C@H](C)[C@@H]1NC(=O)[C@H](Cc2c[nH]cn2)NC(=O)[C@H](C)NC(=O)[C@H](CC(=O)O)NC(=O)[C@H](CC(C)C)NC(=O)[C@H]([C@@H](C)CC)NC(=O)[C@](C)(NC(=O)[C@H](C)NC(C)=O)CN(C)C(=O)OCC=CCOC(=O)N2CC[C@](C(=O)N[C@@H](CCCNC(=N)N)C(=O)N[C@H](C(=O)N[C@@H](Cc3c[nH]c4ccccc34)C(N)=O)C(C)C)(C2)NC1=O [FP0605c, Ac-A-ME-I-L-D-A-H-I-MC-R-V-W-NH2] (Ac-A[dαMeDap(Me)]ILDAHI[X3]RVW-NH2; linker 2-9 via X2)"
3,500 to 5000,"CC[C@H](C)[C@@H]1NC(=O)C2(NC(=O)[C@H](CCC(N)=O)NC(=O)[C@@H]3CCCN3C(C)=O)CN(CC=CCCCC[C@](C)(C(=O)N[C@@H](Cc3c[nH]cn3)C(=O)N[C@H](C(=O)N[C@@H](CCCNC(=N)N)C(=O)N[C@@H](CCCNC(=N)N)C(=O)N[C@H](C(=O)N[C@@H](Cc3c[nH]c4ccccc34)C(=O)N[C@@H](CCCNC(=N)N)C(N)=O)C(C)C)C(C)C)NC(=O)[C@H](CC(=O)O)NC(=O)[C@H](CC(C)C)NC1=O)C2 (single isomer, unassigned) [FP0725a, Ac-P-Q-MA-I-L-D-R6-H-V-R-R-V-W-R-NH2]"
4,100 to 500,"CC[C@H](C)[C@@H]1NC(=O)[C@@](C)(NC(=O)[C@H](CCC(N)=O)NC(=O)[C@@H]2CCCN2C(C)=O)CCCCC=CCOC(=O)N2CC[C@@](C(=O)N[C@@H](Cc3c[nH]cn3)C(=O)N[C@H](C(=O)N[C@@H](CCCNC(=N)N)C(=O)N[C@@H](CCCNC(=N)N)C(=O)N[C@H](C(=O)N[C@@H](Cc3c[nH]c4ccccc34)C(=O)N[C@@H](CCCNC(=N)N)C(N)=O)C(C)C)C(C)C)(C2)NC(=O)[C@H](CC(=O)O)NC(=O)[C@H](CC(C)C)NC1=O (single isomer, unassigned) [FP0761c, Ac-P-Q-S6-I-L-D-MB-H-V-R-R-V-W-R-NH2]"

# Same assay, conditions: competition with FITC labeled Axin-site probe, 15 nM full-length beta-catenin; read-out: FP EC50
row,SMILES,EC50 [nM]
1,"CC[C@H](C)[C@@H]1NC(=O)[C@@](C)(NC(=O)[C@H](CCC(N)=O)NC(=O)[C@@H]2CCCN2C(C)=O)CCCC=CCCC[C@@](C)(C(=O)N[C@@H](Cc2c[nH]cn2)C(=O)N[C@H](C(=O)N[C@@H](CCCNC(=N)N)C(=O)N[C@@H](CCCNC(=N)N)C(=O)N[C@H](C(=O)N[C@@H](Cc2c[nH]c3ccccc23)C(=O)N[C@@H](CCCNC(=N)N)C(N)=O)C(C)C)C(C)C)NC(=O)[C@H](CC(=O)O)NC(=O)[C@H](CC(C)C)NC1=O (single isomer, unassigned) [FP-0787]",~100
